Laboratory results published in patent US10239832B2, “N-(1-hydroxy-3-(pyrrolidinyl)propan-2-yl)pyrrolidine-3-carboxamide derivatives as glucosylceramide synthase inhibitors” (BIOMARIN PHARMACEUTICAL INC., priority 2013, dated 2019).

Target: T1, GCS (Canis lupus familiaris, UniProt A0A8I3MXG6)
T1 construct: endogenous in cells; host or cells: MDCK (Madin-Darby canine kidney) cells, whole-cell lysate
T1 sequence (A0A8I3MXG6 1-394): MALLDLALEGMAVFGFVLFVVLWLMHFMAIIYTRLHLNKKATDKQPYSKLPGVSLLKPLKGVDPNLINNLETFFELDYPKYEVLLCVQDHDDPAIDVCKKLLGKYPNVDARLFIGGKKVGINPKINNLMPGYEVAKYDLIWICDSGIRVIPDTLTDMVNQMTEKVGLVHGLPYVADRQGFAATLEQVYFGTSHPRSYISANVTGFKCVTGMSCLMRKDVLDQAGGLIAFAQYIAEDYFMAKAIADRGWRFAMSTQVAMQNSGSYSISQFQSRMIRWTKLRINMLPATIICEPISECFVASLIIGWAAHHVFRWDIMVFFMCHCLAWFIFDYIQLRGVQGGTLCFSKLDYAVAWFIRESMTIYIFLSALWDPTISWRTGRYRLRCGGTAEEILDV
Assay: GCS enzymatic assay (MDCK cell lysate, NBD-ceramide to glucosylceramide, LC/MS)
Assay type: biochemical, canine
Settings: Table 2; class symbols A, B, C; the table does not say which of the assays; read-out: Data Range (IC50 values)
How it was run: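 IC50 or percent inhibition came from LC/MS/MS (ESI+, MRM) of NBD-ceramide and glucosylceramide, with tolbutamide as internal standard. The reaction used MDCK (canine) cell lysate as the enzyme source and was ended with acetonitrile. Mock wells received 0.1% DMSO.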

## O=C(N[C@H](CN1CCCC1)[C@H](O)c1ccc(OC2CC2)cc1)[C@@H]1CCN(c2ccccc2)C1 [Compound 149, (R)-N-((1R,2R)-1-(4-cyclopropoxyphenyl)-1-hydroxy-3-(pyrrolidin-1-yl)propan-2-yl)-1-phenylpyrrolidine-3-carboxamide]
  IC50: 1 to 30 nM

## O=C(N[C@H](CN1CCCC1)[C@H](O)c1ccc(OC2CC2)c(Cl)c1)[C@@H]1CCN(c2ccccc2)C1 [Compound 150, (R)-N-((1R,2R)-1-(3-chloro-4-cyclopropoxyphenyl)-1-hydroxy-3-(pyrrolidin-1-yl)propan-2-yl)-1-phenylpyrrolidine-3-carboxamide]
  IC50: 1 to 30 nM

## O=C(N[C@H](CN1CCCC1)[C@H](O)c1ccc(OC2CC2)c(F)c1)[C@@H]1CCN(c2ccccc2)C1 [Compound 151, (R)-N-((1R,2R)-1-(4-cyclopropoxy-3-fluorophenyl)-1-hydroxy-3-(pyrrolidin-1-yl)propan-2-yl)-1-phenylpyrrolidine-3-carboxamide]
  IC50: 1 to 30 nM

## N#Cc1ccc(N2CC[C@@H](C(=O)N[C@H](CN3CCCC3)[C@H](O)c3ccc(OC4CC4)c(Cl)c3)C2)cc1 [Compound 152, (R)-N-((1R,2R)-1-(3-chloro-4-cyclopropoxyphenyl)-1-hydroxy-3-(pyrrolidin-1-yl)propan-2-yl)-1-(4-cyanophenyl)pyrrolidine-3-carboxamide]
  IC50: 100 to 1000 nM

## Cc1ccc(N2CC[C@@H](C(=O)N[C@H](CN3CCCC3)[C@H](O)c3ccc(OC4CC4)c(Cl)c3)C2)cc1 [Compound 153, (R)-N-((1R,2R)-1-(3-chloro-4-cyclopropoxyphenyl)-1-hydroxy-3-(pyrrolidin-1-yl)propan-2-yl)-1-(p-tolyl)pyrrolidine-3-carboxamide]
  IC50: 1 to 30 nM

## O=C(N[C@H](CN1CCCC1)[C@H](O)c1cc(F)c2c(c1)OCCO2)[C@]1(O)CCN(c2ccc(Cl)cc2)C1 [Compound 154, (S)-1-(4-chlorophenyl)-N-((1R,2R)-1-(8-fluoro-2,3-dihydrobenzo[b][1,4]dioxin-6-yl)-1-hydroxy-3-(pyrrolidin-1-yl)propan-2-yl)-3-hydroxypyrrolidine-3-carboxamide]
  IC50: 1 to 30 nM

## O=C(N[C@H](CN1CCCC1)[C@H](O)c1cc(F)c2c(c1)OCCO2)[C@@]1(O)CCN(c2ccc(Cl)cc2)C1 [Compound 154C, (R)-1-(4-chlorophenyl)-N-((1R,2R)-1-(8-fluoro-2,3-dihydrobenzo[b][1,4]dioxin-6-yl)-1-hydroxy-3-(pyrrolidin-1-yl)propan-2-yl)-3-hydroxypyrrolidine-3-carboxamide]
  IC50: 100 to 1000 nM

## O=C(N[C@H](CN1CCCC1)[C@H](O)c1ccc(OC2CC2)cc1)[C@@H]1CCN(c2ccc(Cl)cc2)C1 [Compound 155, (R)-1-(4-chlorophenyl)-N-((1R,2R)-1-(4-cyclopropoxyphenyl)-1-hydroxy-3-(pyrrolidin-1-yl)propan-2-yl)pyrrolidine-3-carboxamide]
  IC50: 1 to 30 nM

## O=C(N[C@H](CN1CCCC1)[C@H](O)c1ccc(Cl)cc1)[C@@H]1CCN(c2ccc(Cl)cc2)C1 [Compound 156, (R)-1-(4-chlorophenyl)-N((1R,2R)-1-(4-chlorophenyl)-1-hydroxy-3-(pyrrolidin-1-yl)propan-2-yl)pyrrolidine-3-carboxamide]
  IC50: 100 to 1000 nM

## O=C(N[C@H](CN1CCCC1)[C@H](O)c1ccc(OC2CC2)cc1)[C@@H]1CCN(c2ccc3ccsc3c2)C1 [Compound 157, (R)-1-(benzo[b]thiophen-6-yl)-N-((1R,2R)-1-(4-cyclopropoxyphenyl)-1-hydroxy-3-(pyrrolidin-1-yl)propan-2-yl)pyrrolidine-3-carboxamide]
  IC50: 1 to 30 nM

## O=C(N[C@H](CN1CCC1)[C@H](O)c1ccc(OC2CC2)cc1)[C@@H]1CCN(c2ccc3ccsc3c2)C1 [Compound 158, (R)-N-((1R,2R)-3-(azetidin-1-yl)-1-(4-cyclopropoxyphenyl)-1-hydroxypropan-2-yl)-1-(benzo[b]thiophen-6-yl)pyrrolidine-3-carboxamide]
  IC50: 30 to 100 nM

## O=C(N[C@H](CN1CCC1)[C@H](O)c1ccc(OC2CC2)cc1)[C@@H]1CCN(c2ccc3cc(F)ccc3c2)C1 [Compound 159, (R)-N-((1R,2R)-3-(azetidin-1-yl)-1-(4-cyclopropoxyphenyl)-1-hydroxypropan-2-yl)-1-(6-fluoronaphthalen-2-yl)pyrrolidine-3-carboxamide]
  IC50: 30 to 100 nM

## O=C(N[C@H](CN1CCC1)[C@H](O)c1ccc(OC2CC2)cc1)[C@H]1CCN(c2ccc3cc(F)ccc3c2)C1 [Compound 159C, (S)-N-((1R,2R)-3-(azetidin-1-yl)-1-(4-cyclopropoxyphenyl)-1-hydroxypropan-2-yl)-1-(6-fluoronaphthalen-2-yl)pyrrolidine-3-carboxamide]
  IC50: 100 to 1000 nM

## O=C(N[C@H](CN1CCCC1)[C@H](O)c1ccc(OC(F)F)cc1)[C@@H]1CCN(c2ccc(Cl)cc2)C1 [Compound 160, (R)-1-(4-chlorophenyl)-N-((1R,2R)-1-(4-(difluoromethoxy)phenyl)-1-hydroxy-3-(pyrrolidin-1-yl)propan-2-yl)pyrrolidine-3-carboxamide]
  IC50: 30 to 100 nM

## O=C(N[C@H](CN1CCCC1)[C@H](O)c1ccc(OC(F)F)cc1)[C@@H]1CCN(c2ccccc2)C1 [Compound 161, (R)-N-((1R,2R)-1-(4-(difluoromethoxy)phenyl)-1-hydroxy-3-(pyrrolidin-1-yl)propan-2-yl)-1-phenylpyrrolidine-3-carboxamide]
  IC50: 1 to 30 nM

## O=C(N[C@H](CN1CCCC1)[C@H](O)c1ccc(OC2CC2)cc1)[C@@H]1CCN(c2ccc3cc(F)ccc3c2)C1 [Compound 162, (R)-N-((1R,2R)-1-(4-cyclopropoxyphenyl)-1-hydroxy-3-(pyrrolidin-1-yl)propan-2-yl)-1-(6-fluoronaphthalen-2-yl)pyrrolidine-3-carboxamide]
  IC50: 1 to 30 nM
